According to patent publication US11963941B2, “Use of a fasting mimicking diet to enhance the efficacy of antiestrogens in cancer” (UNIVERSITA' DEGLI STUDI DI GENOVA, priority 2016, dated 2024):
“Also recorded” adds a separate entry of the source.

Assays:
MCF7 cells [1] = assay: Global gene expression microarrays; assay type: cell-based
MCF7 cells [2] = assay: Gene expression by QPCR; assay type: cell-based
Experimental: (§1) In particular, in the experiments of FIGS. 2A-D, 5×10^5 MCF7, ZR-75-1 or T47D cells were plated in 6-well plates in regular DMEM medium containing 10% FBS. 24 h later, the cell medium was removed and cells were incubated for 24 h either in the same medium (CTR) or in fasting mimicking conditions or a fasting mimicking diet (FMD). 24 h later, 10 μM tamoxifen (Tam) was added to the culture medium where indicated. 24 h later, cells were used for cell cycle analysis or for mRNA extraction and subsequent determination of E2F1, E2F4 and CCNE1 expression by QPCR.
In the experiment of FIG. 4, MCF7, ZR-75-1 or T47D cells were treated as in the experiment of FIG. 2. 24 h after tamoxifen (5 μM) addition, cells were used for protein lysate generation or for mRNA extraction, ER and β-actin were detected by immunoblotting. TTF1 expression was determined by QPCR.
In the experiment of FIG. 6, MCF7, ZR-75-1 or T47D cells were treated as in the experiment of FIG. 2. 24 h after tamoxifen (5 μM) addition, cells were used for RNA extraction or for protein lysate generation. In FIG. 6A, RAD51 expression was detected by QPCR. In FIG. 6B, RAD51 and (β-actin were detected by immunoblotting.

T47D cells [3] = tested on: T47D cells
T47D cells [4] = assay: Gene expression by QPCR; assay type: cell-based
[5] = assay type: in vivo; settings: fasting (water only, 48 h) + tamoxifen 30 mg/kg/die; FIG. 8C
MCF7 cells [6] = assay: Cell cycle analysis (G1 arrest); assay type: cell-based; settings: 10 μM tamoxifen, 24 h, FIG. 2A
Experimental: as §1

T47D cells [7] = assay: Cell cycle analysis (G1 arrest); assay type: cell-based; settings: 10 μM tamoxifen, 24 h, FIG. 2C
Experimental: as §1

MCF7 xenografts = assay: MCF7 xenograft tumor growth
MCF7 cells [8] = assay type: cell-based; settings: FMD + tamoxifen 5 μM, 24 h
MCF7 cells [9] = assay: Cell viability in control vs fasting mimicking (FMD) medium; assay type: cell-based; settings: FMD = low-glucose (0.5 g/L) DMEM, 1% FBS, vs regular medium, FIG. 1A, 1D
Experimental: In particular, in the experiments of FIGS. 1A-D, 3×10^3 MCF7 (A, D), ZR-75-1 (B) or T47D (C) cells were plated in 96 well plates in regular DMEM medium containing 10% FBS. 24 h later, the cell medium was removed and cells were incubated for 24 h either in the same medium (CTR) or in low-glucose (0.5 g/L) DMEM medium containing 1% FBS (FMD). 24 h later, tamoxifen (Tam) or fulvestrant (Fulv) at the indicated concentrations were added to the culture medium.

T47D cells [10] = assay: as above; assay type: cell-based; settings: FMD = low-glucose (0.5 g/L) DMEM, 1% FBS, vs regular medium, FIG. 1C
MCF7 cells [11] = assay: Short-term viability assay (72 h, sulforhodamine B) with chemotherapeutics; assay type: cell-based; settings: FIG. 7
Experimental: In the experiment of FIG. 7, 5×10^3 MCF7 cells/well were plated in 96-well plates in regular DMEM medium containing 10% FBS. 24 h later, the cell medium was removed and cells were incubated for 24 h either in the same medium or in low-glucose (0.5 g/L) DMEM medium containing 1% FBS (fasting mimicking conditions). 24 h later, 10 μM tamoxifen (Tam) was added to the culture medium where indicated. 24 h later, cells were stimulated with doxorubicin or Taxotere at the indicated concentrations. Viability was determined 72 h later in sulforhodamine B assays.

[12] = literature refs [5], [6]; cited from earlier work
[13] = MCF7 treated with tamoxifen and FMD, 4 biological replicates/condition
[14] = FMD + tamoxifen 5 μM, 24 h, FIG. 4B
[15] = FMD + tamoxifen 5 μM, 24 h, FIG. 6A
[16] = FMD + tamoxifen 10 μM vs single treatments, FIG. 2D
[17] = FMD + tamoxifen 5 μM, 24 h, FIG. 3

## CC/C(=C(\c1ccccc1)c1ccc(OCCN(C)C)cc1)c1ccccc1 [tamoxifen]
MCF7 cells [1]; MCF7, FMD added to tamoxifen vs FMD alone or tamoxifen alone, FIG. 5
  gene ontology/pathway analysis of differentially expressed genes: marked changes in pathways related to DNA repair
MCF7 cells [1]; [13]
  BRCA1 Log2 fold change: −1.372
  EXO1 Log2 fold change: −1.583
  PCNA Log2 fold change: −1.658
  RAD51 Log2 fold change: −1.864
  TIPIN Log2 fold change: −1.604
MCF7 cells [2]; [14]
  TTF1 expression (ERα-mediated transcription): increase the ability of tamoxifen to reduce TTF1 expression
MCF7 cells [2]; [15]
  RAD51 expression at the mRNA level: strong RAD51 downregulation
MCF7 cells [2]; [16]
  downregulation of cell cycle promoting genes (E2F1, E2F2 and CCNE1): more pronounced
T47D cells [3]; [17]
  4E-BP1 phosphorylation state: marked accumulation of the unphosphorylated form
  mTOR activity (levels of phosphorylated p70S6K and eIF4E): marked inhibition of mTOR activity
T47D cells [3]; FMD + tamoxifen 5 μM, 24 h, FIG. 6B
  RAD51 expression at the protein level: strong RAD51 downregulation
T47D cells [3]; FMD in combination with tamoxifen 5 μM, FIG. 3
  HER2 expression: marked reduction in HER2 expression
T47D cells [4]; [14]
  TTF1 expression (ERα-mediated transcription): increase the ability of tamoxifen to reduce TTF1 expression
T47D cells [4]; [15]
  RAD51 expression at the mRNA level: strong RAD51 downregulation
T47D cells [4]; [16]
  downregulation of cell cycle promoting genes (E2F1, E2F2 and CCNE1): more pronounced; also recorded: only occurred in response to a combined treatment
[5]
  mouse body weight loss, addition of drug to fasting: failed to worsen weight losses
MCF7 cells [6]
  induction of a G1 cell cycle arrest, drug + FMD: increased the ability
T47D cells [7]
  induction of a G1 cell cycle arrest, drug + FMD: increased the ability; also recorded: only occurred in response to a combined treatment
MCF7 xenografts; normal diet, tamoxifen 30 mg/kg/die oral gavage, FIG. 8A
  growth of MCF7 xenografts (tumor volume), drug alone: reduced the growth
MCF7 xenografts; tamoxifen 30 mg/kg/die oral gavage + fasting (water only, 48 h, once a week), p<0.05
  growth of MCF7 xenografts (tumor volume), drug + fasting: significantly more effective than either type of treatment alone
MCF7 cells [8]; FIG. 3
  4E-BP1 phosphorylation state: marked accumulation of the unphosphorylated form
  mTOR activity (levels of phosphorylated p70S6K and eIF4E): marked inhibition of mTOR activity
MCF7 cells [8]; FIG. 6B
  RAD51 expression at the protein level: strong RAD51 downregulation
MCF7 cells [9]
  cell viability: potentiation of drug activity by FMD conditions: strong potentiation
T47D cells [10]
  cell viability: potentiation of drug activity by FMD conditions: strong potentiation

## COc1cccc2c1C(=O)c1c(O)c3c(c(O)c1C2=O)C[C@@](O)(C(=O)CO)C[C@@H]3O[C@H]1C[C@H](N)[C@H](O)[C@H](C)O1 [doxorubicin]
MCF7 cells [11]; doxorubicin 100 nM
  cell viability, triple treatment tamoxifen + doxorubicin + FMD: most pronounced reduction in cell viability

## CC(=O)O[C@@]12CO[C@@H]1C[C@H](O)[C@@]1(C)C(=O)[C@H](O)C3=C(C)[C@@H](OC(=O)[C@H](O)[C@@H](NC(=O)OC(C)(C)C)c4ccccc4)C[C@@](O)([C@@H](OC(=O)c4ccccc4)[C@H]21)C3(C)C [Taxotere, docetaxel]
MCF7 cells [11]; taxotere 100 nM
  cell viability, triple treatment tamoxifen + Taxotere + FMD: most pronounced reduction in cell viability

## C[C@]12CC[C@@H]3c4ccc(O)cc4C[C@@H](CCCCCCCCC[S+]([O-])CCCC(F)(F)C(F)(F)F)[C@H]3[C@@H]1CC[C@@H]2O (some centres unmarked) [fulvestrant]
MCF7 cells [6]
  induction of a G1 cell cycle arrest, drug + FMD: increased the ability
T47D cells [7]
  induction of a G1 cell cycle arrest, drug + FMD: increased the ability
MCF7 cells [9]
  cell viability: potentiation of drug activity by FMD conditions: marked increase

## CO[C@H]1C[C@@H]2CC[C@@H](C)[C@@](O)(O2)C(=O)C(=O)N2CCCC[C@H]2C(=O)O[C@H]([C@H](C)C[C@@H]2CC[C@@H](OCCO)[C@H](OC)C2)CC(=O)[C@H](C)/C=C(\C)[C@@H](O)[C@@H](OC)C(=O)[C@H](C)C[C@H](C)/C=C/C=C/C=C/1C [everolimus]
[12]
  significant side effects: stomatitis, anemia and hyperglycemia
